Experimental data: article PMC6804253, “Predicting and Experimentally Validating Hot-Spot Residues at Protein–Protein Interfaces” (ACS Chemical Biology, 2019)
Read-outs that look alike come from different tables or passages of the source.

Legend:
[1] = tested on: PPIs of the SKEMPI data set (by PDBID); settings: ref SKEMPI, cited from earlier work; for sk_ddG_kJ: SKEMPI experimental ΔΔG of binding, complex by PDBID; for sk_ddG_kJ / sk_ddG_kJ (SKEMPI experimental ΔΔG) / sk_ddG_kJ (SKEMPI experimental ΔΔG, mutation to alanine): single mutation to alanine; for sk_ddG_kJ (SKEMPI experimental ΔΔG, mutation to alanine): PPI given by PDBID, r_group DERKH; for sk_ddG_kJ (SKEMPI experimental ΔΔG of binding, mutation to alanine): single mutation to alanine in the complex of the given PDBID
[2] = tested on: PPIs of the SKEMPI data set (by PDBID); assay: SKEMPI experimental ΔΔG, single mutations to alanine; format: binding; settings: for sk_class: class of the SKEMPI experimental ΔΔG
[3] = complex given by PDBID, mutation by mut_pdb
[4] = class by ΔΔG threshold 4.184 kJ/mol, ref SKEMPI
[5] = Positive / Neutral / Negative by ΔΔG threshold 4.184 kJ/mol, ref SKEMPI

Substance	sk_class [2]	sk_ddG_kJ (SKEMPI experimental ΔΔG) [1, 3]	sk_ddG_kJ (SKEMPI experimental ΔΔG, mutation to alanine) ([1]; sheet sortedByGroup)	sk_class (class of the SKEMPI experimental ΔΔG) [2, 4]	also measured
1A4Y HB84A	–	–	–	–	sk_ddG_kJ [1]: 0.71 kJ; sk_class ([2]; ref SKEMPI): Neutral (neutral (little effect) 4.184 kJ/mol < ΔΔG > −4.184 kJ/mol)
1A4Y NB68A	Neutral (neutral (little effect) 4.184 kJ/mol < ΔΔG > −4.184 kJ/mol)	–	–	–	sk_ddG_kJ (SKEMPI experimental ΔΔG) ([1]; complex given by PDBID, residue group SQNT): 0.50 kJ
1A4Y QB12A	Neutral (neutral (little effect) 4.184 kJ/mol < ΔΔG > −4.184 kJ/mol)	1.26 kJ	–	–	–
1A4Y RB5A	–	–	9.67 kJ	Positive (positive (a hot residue) ΔΔG ≥ 4.184 kJ/mol)	–
1A4Y RB31A	–	–	1.05 kJ	Neutral (neutral (little effect) 4.184 kJ/mol < ΔΔG > −4.184 kJ/mol)	–
1A4Y RB32A	–	–	–	–	sk_ddG_kJ [1]: 3.77 kJ; sk_class ([2]; ref SKEMPI): Neutral (neutral (little effect) 4.184 kJ/mol < ΔΔG > −4.184 kJ/mol)
1A4Y RB33A	–	–	–	–	sk_ddG_kJ [1]: 1.38 kJ; sk_class ([2]; ref SKEMPI): Neutral (neutral (little effect) 4.184 kJ/mol < ΔΔG > −4.184 kJ/mol)
1A4Y RB66A	–	–	–	–	sk_ddG_kJ [1]: 0.84 kJ; sk_class ([2]; ref SKEMPI): Neutral (neutral (little effect) 4.184 kJ/mol < ΔΔG > −4.184 kJ/mol)
1A4Y RB70A	–	–	–	–	sk_ddG_kJ [1]: -1.05 kJ; sk_class ([2]; ref SKEMPI): Neutral (neutral (little effect) 4.184 kJ/mol < ΔΔG > −4.184 kJ/mol)
1A4Y WB89A	Neutral (neutral (little effect) 4.184 kJ/mol < ΔΔG > −4.184 kJ/mol)	–	–	–	sk_ddG_kJ (SKEMPI experimental ΔΔG) ([1]; sheet sortedByGroup, r_group FAMILYVW): 0.96 kJ
1A22 CA182A	Positive (positive (a hot residue) ΔΔG ≥ 4.184 kJ/mol)	4.23 kJ	–	–	–
1A22 DA171A	–	–	3.35 kJ	Neutral (neutral (little effect) 4.184 kJ/mol < ΔΔG > −4.184 kJ/mol)	–
1A22 EA66A	–	–	1.80 kJ	Neutral (neutral (little effect) 4.184 kJ/mol < ΔΔG > −4.184 kJ/mol)	–
1A22 EA174A	–	–	-3.77 kJ	Neutral (neutral (little effect) 4.184 kJ/mol < ΔΔG > −4.184 kJ/mol)	–
1A22 EA186A	–	–	0.00 kJ	Neutral (neutral (little effect) 4.184 kJ/mol < ΔΔG > −4.184 kJ/mol)	–
1A22 FA10A	–	–	–	–	sk_ddG_kJ (SKEMPI experimental ΔΔG of binding, mutation to alanine) [1]: 4.35 kJ; sk_class (class of the SKEMPI experimental ΔΔG) [2, 5]: Positive (positive (a hot residue) ΔΔG ≥ 4.184 kJ/mol)
1A22 FA25A	–	–	–	–	sk_ddG_kJ (SKEMPI experimental ΔΔG of binding, mutation to alanine) [1]: -1.72 kJ; sk_class (class of the SKEMPI experimental ΔΔG) [2, 5]: Neutral (neutral (little effect) 4.184 kJ/mol < ΔΔG > −4.184 kJ/mol)
1A22 FA54A	–	–	–	–	sk_ddG_kJ (SKEMPI experimental ΔΔG of binding, mutation to alanine) [1]: 3.64 kJ; sk_class (class of the SKEMPI experimental ΔΔG) [2, 5]: Neutral (neutral (little effect) 4.184 kJ/mol < ΔΔG > −4.184 kJ/mol)
1A22 FA176A	–	–	–	–	sk_ddG_kJ (SKEMPI experimental ΔΔG of binding, mutation to alanine) [1]: 7.95 kJ; sk_class (class of the SKEMPI experimental ΔΔG) [2, 5]: Positive (positive (a hot residue) ΔΔG ≥ 4.184 kJ/mol)
1A22 FA191A	–	–	–	–	sk_ddG_kJ (SKEMPI experimental ΔΔG of binding, mutation to alanine) [1]: 0.79 kJ; sk_class (class of the SKEMPI experimental ΔΔG) [2, 5]: Neutral (neutral (little effect) 4.184 kJ/mol < ΔΔG > −4.184 kJ/mol)
1A22 HA21A	–	–	0.84 kJ	Neutral (neutral (little effect) 4.184 kJ/mol < ΔΔG > −4.184 kJ/mol)	–
1A22 IA58A	–	–	–	–	sk_ddG_kJ (SKEMPI experimental ΔΔG of binding, mutation to alanine) [1]: 6.86 kJ; sk_class (class of the SKEMPI experimental ΔΔG) [2, 5]: Positive (positive (a hot residue) ΔΔG ≥ 4.184 kJ/mol)
1A22 IA179A	–	–	–	–	sk_ddG_kJ (SKEMPI experimental ΔΔG of binding, mutation to alanine) [1]: 3.35 kJ; sk_class (class of the SKEMPI experimental ΔΔG) [2, 5]: Neutral (neutral (little effect) 4.184 kJ/mol < ΔΔG > −4.184 kJ/mol)
1A22 KA70A	–	–	2.18 kJ	Neutral (neutral (little effect) 4.184 kJ/mol < ΔΔG > −4.184 kJ/mol)	–
1A22 KA168A	–	–	-0.84 kJ	Neutral (neutral (little effect) 4.184 kJ/mol < ΔΔG > −4.184 kJ/mol)	–
1A22 KA172A	–	–	8.37 kJ	Positive (positive (a hot residue) ΔΔG ≥ 4.184 kJ/mol)	–
1A22 LA9A	–	–	–	–	sk_ddG_kJ (SKEMPI experimental ΔΔG of binding, mutation to alanine) [1]: -0.17 kJ; sk_class (class of the SKEMPI experimental ΔΔG) [2, 5]: Neutral (neutral (little effect) 4.184 kJ/mol < ΔΔG > −4.184 kJ/mol)

Substance	sk_class [2]	sk_ddG_kJ (SKEMPI experimental ΔΔG) [1, 3]	sk_ddG_kJ (SKEMPI experimental ΔΔG, mutation to alanine) ([1]; sheet sortedByGroup)	sk_class (class of the SKEMPI experimental ΔΔG) [2, 4]	also measured
1A22 LA15A	–	–	–	–	sk_ddG_kJ (SKEMPI experimental ΔΔG of binding, mutation to alanine) [1]: 0.63 kJ; sk_class (class of the SKEMPI experimental ΔΔG) [2, 5]: Neutral (neutral (little effect) 4.184 kJ/mol < ΔΔG > −4.184 kJ/mol)
1A22 LA45A	–	–	–	–	sk_ddG_kJ (SKEMPI experimental ΔΔG of binding, mutation to alanine) [1]: 5.02 kJ; sk_class (class of the SKEMPI experimental ΔΔG) [2, 5]: Positive (positive (a hot residue) ΔΔG ≥ 4.184 kJ/mol)
1A22 LA73A	–	–	–	–	sk_ddG_kJ (SKEMPI experimental ΔΔG of binding, mutation to alanine) [1]: -0.84 kJ; sk_class (class of the SKEMPI experimental ΔΔG) [2, 5]: Neutral (neutral (little effect) 4.184 kJ/mol < ΔΔG > −4.184 kJ/mol)
1A22 NA12A	Neutral (neutral (little effect) 4.184 kJ/mol < ΔΔG > −4.184 kJ/mol)	0.42 kJ	–	–	–
1A22 NA63A	Neutral (neutral (little effect) 4.184 kJ/mol < ΔΔG > −4.184 kJ/mol)	1.26 kJ	–	–	–
1A22 QA22A	Neutral (neutral (little effect) 4.184 kJ/mol < ΔΔG > −4.184 kJ/mol)	-0.84 kJ	–	–	–
1A22 QA29A	Neutral (neutral (little effect) 4.184 kJ/mol < ΔΔG > −4.184 kJ/mol)	-2.51 kJ	–	–	–
1A22 QA46A	Neutral (neutral (little effect) 4.184 kJ/mol < ΔΔG > −4.184 kJ/mol)	0.42 kJ	–	–	–
1A22 QA68A	Neutral (neutral (little effect) 4.184 kJ/mol < ΔΔG > −4.184 kJ/mol)	2.51 kJ	–	–	–
1A22 QA69A	Neutral (neutral (little effect) 4.184 kJ/mol < ΔΔG > −4.184 kJ/mol)	-0.21 kJ	–	–	–
1A22 QA181A	Neutral (neutral (little effect) 4.184 kJ/mol < ΔΔG > −4.184 kJ/mol)	1.13 kJ	–	–	–
1A22 RA8A	–	–	0.84 kJ	Neutral (neutral (little effect) 4.184 kJ/mol < ΔΔG > −4.184 kJ/mol)	–
1A22 RA16A	–	–	1.00 kJ	Neutral (neutral (little effect) 4.184 kJ/mol < ΔΔG > −4.184 kJ/mol)	–
1A22 RA19A	–	–	0.21 kJ	Neutral (neutral (little effect) 4.184 kJ/mol < ΔΔG > −4.184 kJ/mol)	–
1A22 RA64A	–	–	6.69 kJ	Positive (positive (a hot residue) ΔΔG ≥ 4.184 kJ/mol)	–
1A22 RA178A	–	–	10.04 kJ	Positive (positive (a hot residue) ΔΔG ≥ 4.184 kJ/mol)	–
1A22 RA183A	–	–	2.09 kJ	Neutral (neutral (little effect) 4.184 kJ/mol < ΔΔG > −4.184 kJ/mol)	–
1A22 SA51A	Neutral (neutral (little effect) 4.184 kJ/mol < ΔΔG > −4.184 kJ/mol)	1.26 kJ	–	–	–
1A22 SA55A	Neutral (neutral (little effect) 4.184 kJ/mol < ΔΔG > −4.184 kJ/mol)	0.46 kJ	–	–	–
1A22 SA57A	Neutral (neutral (little effect) 4.184 kJ/mol < ΔΔG > −4.184 kJ/mol)	0.84 kJ	–	–	–
1A22 SA62A	Neutral (neutral (little effect) 4.184 kJ/mol < ΔΔG > −4.184 kJ/mol)	0.42 kJ	–	–	–
1A22 SA71A	Neutral (neutral (little effect) 4.184 kJ/mol < ΔΔG > −4.184 kJ/mol)	1.72 kJ	–	–	–
1A22 SA184A	Neutral (neutral (little effect) 4.184 kJ/mol < ΔΔG > −4.184 kJ/mol)	-0.21 kJ	–	–	–
1A22 SA188A	Neutral (neutral (little effect) 4.184 kJ/mol < ΔΔG > −4.184 kJ/mol)	-0.84 kJ	–	–	–
1A22 TA175A	Positive (positive (a hot residue) ΔΔG ≥ 4.184 kJ/mol)	8.37 kJ	–	–	–
1A22 VA180A	–	–	–	–	sk_ddG_kJ (SKEMPI experimental ΔΔG of binding, mutation to alanine) [1]: 0.00 kJ; sk_class (class of the SKEMPI experimental ΔΔG) [2, 5]: Neutral (neutral (little effect) 4.184 kJ/mol < ΔΔG > −4.184 kJ/mol)
